# Columns and labels:
# [1] = system: New Zealand white rabbits; test: ex vivo whole blood clotting time (WBCT) in rabbits after p.o. dosing; set-up: species or system rabbit; conditions: p.o. 5 mg/kg
# Description: (§1) The anticoagulant and platelet aggregation inhibiting effect of the compounds of general formula (I) was studied in New Zealand white rabbits ex vivo according to D. Bagdy et al. [Thromb. Haemost. 67, 357 (1992)]. The compounds were dissolved in buffered isotonic saline solution and administered i.v. (0,04-5.0 mg/kg) or by infusion (0.25-5.0 mg/kg/h) or subcutaneously (0.5-6.0 mg/kg) or p.o. (2.5-20 mg/kg). The effect of the compounds was detectable already within 30 minutes following p.o. administration, peak values were attained after 60-180 minutes and the therapeutic level was maintained dose-dependently for 3→6 hours.
# (§2) The in vivo effect of ethoxycarbonyl-3-cyclobutyl-D-alanyl-L-prolyl-L-arginine aldehyde (1) is presented in detail in Tables 6 and 7. The corresponding values of C1 are listed as controls. The compound was administered p.o. in doses of 5 mg/kg. The blood samples drawn from the caudal vein in every 30-60 minutes were analysed. The whole blood clotting time (WBCT) and the inhibition of thrombin-induced blood platelet aggregation (PAI) were determined. The activated partial thromboplastin time (APTT) and the thrombin time (TT) in the citrate plasma obtained from the blood sample were also measured. The APTT and TT values are compiled in Table 6 and the WBCT and PAI values in Table 7.
# [2] = system: New Zealand white rabbits; test: ex vivo TT in citrate plasma of rabbits after p.o. dosing; set-up: species or system rabbit; conditions: p.o. 5 mg/kg
# Description: as §1, §2
# thrombin = thrombin (Homo sapiens, UniProt P00734); test: thrombin time (TT) plasma clotting test; assay type: biochemical; conditions: Table 3; twofold prolongation compared to control; read-out: A: anticoagulant IC50, TT
# Description: Anticoagulant activity (i.e. inhibition of the proteolytic reactions in the process) is measured by anticoagulant tests, e.g. in the thrombin time (TT), activated partial thromboplastin time (APTT) and prothrombin time (PT) tests [E. J. W. Bovie et al., Mayo Clinic Laboratory Manual of Haemostasis; W. B. Saunders Co., Philadelphia (1971)]. Plasma, inhibited in spontaneous coagulation, e.g. citrate-plasma, is made to coagulate and the required coagulation time is measured. Upon the action of anticoagulants the coagulation time is prolonged proportionally to the inhibition of the reaction(s) in the process. The anticoagulant effect can be characterised by the substance concentration required to prolong the coagulation time twofold compared to the control (IC50). The effect of anticoagulants on individual coagulant proteases is measured by the amidolytic method [R. Lottenberg et al., Methods in Enzymol. 80, 341 (1981); G. Cleason, Blood Coagulation and Fibrinolysis 5, 411 (1994)]. The isolated active factor (e.g. thrombin, fXa) and its chromogen or fluorogen peptide-amide substrate are reacted in the presence or absence of the inhibitor, resp. The enzyme inhibiting action is characterised by the inhibitory constant (IC50) measured during amidolysis.
# In the TT test coagulation is initiated by the thrombin added to the citrate plasma. In the system 22 pmol/ml of thrombin is functioning and its inhibition can be measured on the fibrinogen (one of the natural substrates of thrombin) in the presence of plasma components. In the APTT and PT tests the full coagulation process takes place. Depending on the activator fX is activated either by the extrinsic or the intrinsic pathway. The generated fXa activates prothrombin to thrombin which, in turn, triggers plasma coagulation. The coagulation time is prolonged if the enzymes or one of them is inhibited by the inhibitor. In the APTT and PT tests at most 40 pmol/ml Xa can be generated (this is the full amount of factor X present in both systems) while 150 pmol/ml (APTT) and 350 pmol/ml (PT) of thrombin are generated [B. Kaiser et al., Thromb. Res. 65, 157 (1992)].
# The in vitro anticoagulant effects of the compounds of general formula (I) was measured by the prothrombin time (PT), activated partial thromboplastin time (APTT) and thrombin time (TT) tests [D. Bagdy et al., Thromb. Haemost. 67, 325 (1992)]. The fxa-inhibiting effect of the compounds was also determined using the Bz-Ile-Glu-Gly-Arg-pNA chromogen substrate (see method M6).
# plasmin (PL) = plasmin (PL) (Homo sapiens, UniProt P00747); test: fibrin-plate method, plasmin; assay type: biochemical
# From the text: (§3) The inhibitory effect of the new compounds of the invention on plasmin (PL) as well as on plasmin formation induced by tissue plasminogen activator (tPA) and urokinase (UK) was examined by the fibrin-plate method [D. Bagdy et al.: Thromb. Haemost. 67, 325 (1992)]. Compounds C1 and C5 served as controls. […] V. Jackson et al.: J. Cardiovasc. Pharmacol. 21, 587 (1993))]. In Table 4 the results obtained with the new compounds 1 and 2 as well as those with controls C1 and C5 are presented as an example.
# [3] = target: T1, fibrin gel-bound thrombin (Homo sapiens, UniProt P00734); test: inhibition of fibrin gel-bound thrombin (Methods M4, M5); assay type: biochemical; conditions: human fibrinogen clotted with human thrombin; Tos-Gly-Pro-Arg-pNA substrate
# T1 construct: purchased SIGMA
# Description: Plasma-clot was obtained by recalcificating platelet-rich human plasma, and fibrin gel by clotting human fibrinogen with human thrombin. For the activity measures of fXa and thrombin Z-D-Arg-Gly-Arg-pNA or Tos-Gly-Pro-Arg-pNA substrates were used in agreement with Methods M1-M3.
# Preparation of Fibrin Clots
# a) To each reaction vessel 200 μl of human fibrinogen (SIGMA), 25 μl of 25 NIH/E/ml human thrombin (SIGMA) and 40 μl of 100 mM CaCl2 solution is placed and the mixtures are allowed to stand for 1 hour at 20-22° C. The fibrin clots are washed with isotonic NaCl-solution (3×2 ml) under gentle stirring to remove traces of thrombin and sedimented for 5 min. The effectiveness of the washing can be checked by the method M1/c.
# Determination of Inhibition of Fibrin-clot Bound Thrombin
# a) 0.1-1.0-10 and 100 μg/ml solutions are made from the peptide inhibitors with Hepes/NaCl buffer (0.001 M Hepes and 0.1 M NaCl, pH=7.4).
# b) Measurements are continued according to M3/b.
# urokinase (UK) = urokinase (UK) (Homo sapiens, UniProt P00749); test: fibrin-plate method, plasmin formation induced by urokinase; assay type: biochemical
# From the text: as §3
# [4] = fibrin plate, hydrolysed area reduced to 50% of control
# [5] = related to the activity of C1 (1/IC50 = 1)
# Sequence of plasmin (PL) (P00747 581-810 limits assumed, species assumed): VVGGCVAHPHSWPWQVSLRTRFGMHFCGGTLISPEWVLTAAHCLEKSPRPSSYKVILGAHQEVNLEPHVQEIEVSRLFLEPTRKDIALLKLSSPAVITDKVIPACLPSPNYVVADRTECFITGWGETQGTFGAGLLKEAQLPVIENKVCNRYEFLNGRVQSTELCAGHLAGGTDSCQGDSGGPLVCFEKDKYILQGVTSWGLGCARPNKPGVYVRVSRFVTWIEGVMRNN
# Sequence of plasmin (PL) (P00747 97-580 partner limits assumed, species assumed): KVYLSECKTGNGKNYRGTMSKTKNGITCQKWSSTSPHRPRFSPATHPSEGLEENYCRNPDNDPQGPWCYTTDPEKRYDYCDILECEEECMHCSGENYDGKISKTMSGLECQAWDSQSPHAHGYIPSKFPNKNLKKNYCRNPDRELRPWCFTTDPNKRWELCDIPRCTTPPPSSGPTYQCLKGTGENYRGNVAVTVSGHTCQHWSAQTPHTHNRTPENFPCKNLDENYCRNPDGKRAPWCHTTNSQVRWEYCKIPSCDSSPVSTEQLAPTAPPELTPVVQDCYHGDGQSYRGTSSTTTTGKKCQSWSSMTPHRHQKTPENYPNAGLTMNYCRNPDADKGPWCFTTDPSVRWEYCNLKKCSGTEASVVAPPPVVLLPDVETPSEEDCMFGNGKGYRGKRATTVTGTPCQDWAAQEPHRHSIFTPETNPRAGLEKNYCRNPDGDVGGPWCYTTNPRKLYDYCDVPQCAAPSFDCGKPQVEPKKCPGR
compound,measurement,setting,value
"CCOC(=O)N[C@H](CC1CCC1)C(=O)N1CCC[C@H]1C(=O)N[C@H](C=O)CCCNC(=N)N [Example 1, Ethoxycarbonyl-3-cyclobutyl-D-alanyl-L-prolyl-L-arginine aldehyde]",WBCT relative clotting time,[1]; 0 min,1.0
same,WBCT relative clotting time,[1]; 30 min,1.52 ± 0.22
same,WBCT relative clotting time,[1]; 45 min,1.58 ± 0.17
same,WBCT relative clotting time,[1]; 60 min,1.88 ± 0.45
same,WBCT relative clotting time,[1]; 90 min,1.73 ± 0.33
same,WBCT relative clotting time,[1]; 120 min,1.98 ± 0.30
same,WBCT relative clotting time,[1]; 180 min,1.43 ± 0.13
same,WBCT relative clotting time,[1]; 240 min,1.12 ± 0.24
same,WBCT relative clotting time,[1]; 300 min,1.18 ± 0.08
same,TT relative clotting time,[2]; 0 min,1.0
same,TT relative clotting time,[2]; 30 min,8.30 ± 5.67
same,TT relative clotting time,[2]; 45 min,9.04 ± 5.50
same,TT relative clotting time,[2]; 60 min,9.28 ± 5.45
same,TT relative clotting time,[2]; 90 min,13.58 ± 5.43
same,TT relative clotting time,[2]; 120 min,16.33 ± 5.89
same,TT relative clotting time,[2]; 180 min,6.95 ± 3.73
same,TT relative clotting time,[2]; 240 min,2.03 ± 0.42
same,TT relative clotting time,[2]; 300 min,1.77 ± 0.50
same,IC50,thrombin,0.11 µM
same,IC50,plasmin (PL); [4],39 µM
same,"B: relative efficiency, PL",plasmin (PL); [5],1.4
same,"activity against PL, times lower than that of compound C5","plasmin (PL); text b147, first of three enzymes",3.2 times
same,IC50,[3],0.32 µM
same,IC50,urokinase (UK); [4],120 µM
same,"B: relative efficiency, UK",urokinase (UK); [5],0.7
same,"activity against UK, times lower than that of compound C5","urokinase (UK); text b147, third of three enzymes",39 times

# From patent US6235707A, “Anticoagulant peptidyl-arginine aldehyde derivatives” (Gyogyszerkutato Intezet Kft., priority 1996, dated 2001)
